Test results from publication PMC7157554, “Anti-Trypanosomal Proteasome Inhibitors Cure Hemolymphatic and Meningoencephalic Murine Infection Models of African Trypanosomiasis” (Tropical Medicine and Infectious Disease, 2020).

Experiments:
[1] = PAMPA (parallel artificial membrane permeability assay); type: in vitro ADME; conditions: FA: fraction absorbed
Description: (§1) Test compounds’ solubility was determined in a high-throughput thermodynamic solubility assay, as described previously. The PAMPA (parallel artificial membrane) assays were carried out, using a standard protocol. Plasma protein binding was determined by using mouse blood, whilst brain tissue binding was determined by using rat brain tissue homogenate. Intrinsic metabolic clearances were determined in mouse liver microsomes, using the compound depletion approach and LC–MS/MS quantification.

[2] = Intrinsic metabolic clearance in mouse liver microsomes; type: in vitro ADME; conditions: liver microsomes, read-out: Mouse liver microsomal clearance
Description: as §1

[3] = Brain-to-plasma drug concentration ratio in mice; type: in vivo; conditions: mouse, brain and plasma, intravenous, read-out: B/P Ratio
Description: For measurement of the brain-to-plasma drug concentration ratio, mice were dosed intravenously with 1 mg/kg compounds. Mice were euthanized at 5 and 60 min post-dosing, and blood and brains were collected. The compound concentrations in plasma and brains were measured, following the protocol described above.

T. b. brucei STIB795 = assay: Hemolymphatic mouse model (stage 1 HAT efficacy model); type: in vivo; conditions: for % Cured / Mean day of Relapse / Mice Cured/Total: four days
Description: The T. b. brucei STIB795 acute mouse model mimics the hemolymphatic stage of the sleeping sickness disease. We used six female NMRI mice per experimental group, divided into two cages. Heparinized blood from a donor mouse with approximately 5 × 10^6 per mL parasitemia was suspended in phosphate saline glucose (PSG), to obtain a parasite suspension of […]. Each mouse was injected with 0.25 mL of parasite suspension (10^4 bloodstream forms of T. b. brucei STIB795) intraperitoneally. All compounds were formulated in 0.5% methylcellulose and 0.5% Tween80. Three days post-infection, test compounds were administered orally on four consecutive days, in a volume of 100 µL/10 g. Three mice served as infected–untreated controls. […] Until 31 days post-infection, parasitemia was monitored microscopically by tail-blood examination twice a week. Mice were considered cured when there was no parasitemia detected in the tail blood. All the results from the individual experiments were reported as number of mice cured over total number of mice treated. A Kaplan–Meier plot was used for representing the number of mice cured at different treatment doses.

[4] = LogD (measured octanol water co-efficient); type: physicochemical
[5] = tested on: T. b. brucei (GVR35-VSL2); assay: Meningoencephalic mouse model (stage 2 HAT efficacy model, GVR35) with bioluminescence imaging; type: in vivo
Description: The GVR35 mouse CNS model mimics the second (meningoencephalic) stage of African trypanosomiasis. Female CD1 mice (~8 weeks old, from Charles River) were injected intraperitoneally (i.p.) with 3 × 10^4 T. b. brucei (GVR35-VSL2) bloodstream-form parasites. As controls, a group of three untreated mice and another group of three mice treated with diminazene aceturate (DA) were included. […] Mice treated with DA usually relapse after 42 days post-infection. […]
Blood parasitemia was quantified weekly from day 21/22, by microscopy of blood from the tail vein. Mice were imaged for bioluminescence using an in vivo imaging system (IVIS) prior to treatment on day 21/22, and weekly after treatment, as described previously. Briefly, mice, in groups of three, were injected i.p. with 150 mg of D-luciferin (Promega) per kilogram body weight in PBS and imaged after 10 min, using an IVIS Spectrum (PerkinElmer, Waltham, Massachusetts MA, USA). Living Image Software (PerkinElmer) was used for acquisition and analysis of bioluminescence imaging data. Bioluminescence in the same rectangular region of interest (ROI) on whole-body mouse images was quantified and is shown in total flux (photons per second). Images were cropped to the ROIs and composites of images from representative mice are shown. Uncured mice were euthanized within 1 or 2 days of parasite detection in the blood. Cured mice were euthanized between day 92 and 101 post-infection. All the results from the individual experiments were reported as number of mice cured over total number of mice treated. A Kaplan–Meier plot was used for representing the number of mice cured at different treatment doses.

[6] = tested on: MDR1-MDCK (Multi Drug Resistant 1 overexpressing Madin–Darby canine kidney cells); assay: in vitro; conditions: dog
Description: (§2) In order to evaluate potential of brain permeability, all three compounds were tested in an MDR1-MDCK permeability assay. […] Those that have a high efflux ratio are generally substrates for Pgp transporters, thereby having a higher propensity to be excluded from the brain. […] To assess directly the TP compounds’ ability to penetrate brain, mice were dosed with compound, and plasma and brains were collected after 5 and 60 min following intravenous dosing.

MDR1 (Pgp) = assay: in vitro; conditions: dog, MDCK-MDR1
Description: as §2

[7] = Intravenous pharmacokinetics in mouse; type: in vivo
Description: Determination of intravenous (i.v.) and per oral (p.o.) pharmacokinetics (PK) were carried out by using male BALB/c mice. […] To avoid any granular material, the solution was filtered, using a 0.45 μm syringe filter. The filtered solutions were dosed intravenously to mice via the lateral tail vein, at 5 mg/kg, with a dosing volume of 2 mL/kg. For all the p.o. PK studies, compounds were resuspended in 0.5% v/v methyl cellulose in 0.5 % v/v tween 80 solution. For 20 mg/kg dosing, 200 µL of compounds was administered orally to mice. […] Blood samples were collected into heparin microtainers and centrifuged, and then plasma was separated and frozen until analysis. Plasma samples (20 μL) were extracted with acetonitrile:methanol (3:1) containing internal standard. […] The supernatant was transferred to a 96-well analysis plate and analyzed, using optimized LC/MS/MS conditions. For every experiment, 3 mice were used per compound, per dose. The plasma concentration-time profile was obtained by plotting the mean value from the three animals at each time point. Various PK parameters, such as Cmax (maximum concentration), area under curve (AUC) and oral bioavailability (F) for compounds, were calculated by non-compartmental regression analysis, using an in-house fitting program developed at GNF [8]. All the in-life studies were carried out under protocols approved by the Animal Care and Use Committee (IACUC), following animal ethics guidelines of GNF.

## Cc1nc(C)c(C(=O)Nc2ccc(F)c(-c3nc4ncc(-c5ccccc5)cn4n3)c2)o1 [GNF3849]
[1]
  PAMPA Permeability (% FA): 96 % FA
[2]
  microsomal CLint: 15.2 µL/min/mg
[3]; 5 min after 1 mg/kg i.v.
  Kp at 5 min: 0.22
[3]; 60 min after 1 mg/kg i.v.
  Kp at 60 min: 0.28
T. b. brucei STIB795; 7.5 mg/kg QD oral
  % Cured: 100%
  Mean day of Relapse: >31 days post infection
  Mice Cured/Total: 6/6
T. b. brucei STIB795; 25 mg/kg QD oral
  % Cured: 100%
  Mean day of Relapse: >31 days post infection
  Mice Cured/Total: 6/6
T. b. brucei STIB795; 75 mg/kg QD oral
  % Cured: 100%
  Mean day of Relapse: >31 days post infection
  Mice Cured/Total: 6/6
T. b. brucei STIB795; all doses: 7.5, 25 and 75 mg/kg, once daily, for four days
  Cure outcome: complete cure
[4]
  logD: 3.31
[5]; 7.5 mg/kg QD oral, seven days
  % Cured: 0%
  Mean Day of Relapse: 37 days post infection
  Mice Cured/Total: 0/6
[5]; 75 mg/kg QD oral, seven days
  % Cured: 50%
  Day of Relapse, mice which did not relapse (value in parenthesis): > 92 days post infection
  Mice Cured/Total: 3/6
[5]; 75 mg/kg QD oral, seven days, mice which relapsed
  Mean Day of Relapse: 60 days post infection
[5]; 7.5 and 75 mg/kg, once daily
  Cure outcome: failed to achieve complete cure
[6]
  MDR1-MDCK A–B: 4.5
  MDR1-MDCK B–A: 14.1
MDR1 (Pgp)
  efflux ratio: 3.2
[7]; i.v. 5 mg/kg, elimination half-life
  T1/2: 6.5 H
[7]; male, BALB/c, plasma, iv, 5 mg/kg, i.v., read-out: Elimination half-life (converted)
  half-life: 6.5 h
[7]; male, BALB/c, plasma, iv, i.v. 5 mg/kg, read-out: Vss
  Vd: 1.2 L/kg
